Results from PubChem BioAssay (NCI).
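Five compound concentrations were applied to cells in 96-well plates for 48 hours; endpoints were derived by simple linear interpolation of the resulting dose-response curve. Definition used: TGI = concentration required for complete inhibition of growth.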

Legend:
Experiment in all cases: inhibition of tumour cell growth, NCI panel, 48 h
SK-OV-3 ovarian = tested on: SK-OV-3 ovarian
T-47D breast = tested on: T-47D breast
CAKI-1 renal = tested on: CAKI-1 renal
SF-539 CNS = tested on: SF-539 CNS
NCI-H23 lung = tested on: NCI-H23 lung
UACC-62 melanoma = tested on: UACC-62 melanoma
DU-145 prostate = tested on: DU-145 prostate
MDA-MB-435 = tested on: MDA-MB-435
NCI-H522 lung = tested on: NCI-H522 lung
MCF7 breast = tested on: MCF7 breast
NCI-H226 lung = tested on: NCI-H226 lung
HOP-62 NSCLC = tested on: HOP-62 NSCLC
EKVX NSCLC = tested on: EKVX NSCLC
K-562 leukemia = tested on: K-562 leukemia
CCRF-CEM leukemia = tested on: CCRF-CEM leukemia
OVCAR-3 ovarian = tested on: OVCAR-3 ovarian
SF-295 CNS = tested on: SF-295 CNS
M14 melanoma = tested on: M14 melanoma
OVCAR-4 ovarian = tested on: OVCAR-4 ovarian
HOP-92 NSCLC = tested on: HOP-92 NSCLC

Row | SMILES | TGI (SK-OV-3 ovarian) [µM] | TGI (T-47D breast) [µM] | TGI (CAKI-1 renal) [µM] | TGI (SF-539 CNS) [µM] | TGI (NCI-H23 lung) [µM] | TGI (UACC-62 melanoma) [µM] | TGI (DU-145 prostate) [µM] | TGI (MDA-MB-435) [µM] | TGI (NCI-H522 lung) [µM] | TGI (MCF7 breast) [µM] | TGI (NCI-H226 lung) [µM] | TGI (HOP-62 NSCLC) [µM] | TGI (EKVX NSCLC) [µM] | TGI (K-562 leukemia) [µM] | TGI (CCRF-CEM leukemia) [µM] | TGI (OVCAR-3 ovarian) [µM] | TGI (SF-295 CNS) [µM] | TGI (M14 melanoma) [µM] | TGI (OVCAR-4 ovarian) [µM] | TGI (HOP-92 NSCLC) [µM]
1 | COc1ccc(/C=C/C(=O)CC(=O)/C=C/c2ccc(OC)cc2)cc1 | > 100 | > 100 | > 100 | 78.7 | 95.1 | > 100 | > 100 | > 100 | 67 | > 100 | > 100 | > 100 | > 100 | > 100 | 54.9 | 75.5 | > 100 | > 100 |  | 
2 | O=C(O)CNn1c(SCC(=O)O)nnc(/C=C/c2c(O)ccc3ccccc23)c1=O | > 100 | > 100 | > 100 | > 100 | 52.6 | 74.4 | > 100 | > 100 | > 100 | > 100 |  | > 100 | 66.2 | 62.7 | 14.9 | > 100 | > 100 | 43.5 | > 100 | 
3 | O=C(N/N=C/c1ccccc1O)c1ccccc1Nc1ccccc1C(=O)N/N=C/c1ccccc1O | > 100 | > 100 | > 100 | > 100 | > 100 | > 100 | > 100 | > 30.7 | > 100 | > 100 | 3.79 | > 20.7 | > 100 | > 100 | > 100 | > 100 | > 100 | 6.35 | > 100 | 
4 | CN(C)CCn1c(=O)c2ccc3c4c(nn3CCN(C)C)c3cc([N+](=O)[O-])ccc3n(c1=O)c24 | 0.959 | 10.8 | 0.275 | 2.83 | 0.397 | 0.952 | 1.2 | 0.219 | 0.2 | 0.65 | 2.35 | 0.974 | 0.434 |  | 0.417 | 2.26 | 1.05 | 1.29 | 0.223 | 
5 | O=S(=O)([O-])[O-].[Cl-].[NH2-].[NH2-].[NH2-].[NH2-].[Ru+3].c1ccncc1 | > 100 |  | > 100 | > 100 | > 100 | > 100 |  |  | > 100 |  | > 100 | > 100 | > 100 | > 100 | > 100 | > 100 | > 100 | > 100 | > 100 | > 100
6 | CC(C)C(C/C=C1/CC(CO)(COC(=O)c2ccccc2)OC1=O)C(C)C (stereo not drawn) | > 100 | 31.2 | 27.8 | 16.1 | 34.7 | 67.1 |  | 95.5 | 35 | 39 | 32.4 | 22.4 | 35.9 | 48 | 43.5 | 32.2 | 25.7 | 32.2 | 30 | 35.8
7 | O=[N+]([O-])C(=C1Nc2ccccc2N1)/C(Cl)=C(/Cl)N1CCOCC1 | > 100 | 51.2 | > 100 | > 100 | > 100 | > 100 |  | > 100 |  | > 100 | > 100 | > 100 | > 100 | > 100 | > 100 | 96.6 | > 100 | > 100 | 61 | 
8 | O=C(CN1CCOCC1)c1ccc2c(c1)oc(=O)n2CCN1CCCC1 | > 100 |  | > 100 | > 100 | > 100 | > 100 | > 100 | > 100 |  | > 100 | > 100 | > 100 | > 100 | > 100 | > 100 | > 100 | > 100 | > 100 |  | 
9 | Cc1nc2ccc(NC3OC(CO)C(O)C(O)C3O)cc2c(=O)n1-c1ccccc1 (stereo not drawn) |  | > 100 | > 100 |  | > 100 | > 100 | > 100 | > 100 | > 100 | > 100 | > 100 | > 100 | > 100 | > 100 |  | > 100 | > 100 |  | > 100 | 
10 | Oc1ccccc1C1=NOC(c2ccc(C(F)(F)F)cc2)C1 (stereo not drawn) | > 50 | > 38.1 | > 50 | > 50 | > 50 | > 50 | > 50 | > 50 | > 50 | > 50 | > 50 | > 50 | > 50 | > 50 | > 50 | > 50 | > 50 | > 50 | > 50 | 
11 | N#Cc1c(O)cc(=O)n2c1[nH]c1ccccc12 | > 100 |  | > 100 | > 100 | > 100 | > 100 | > 100 | > 100 | > 100 | > 100 | > 100 | > 100 | > 100 | > 100 | > 100 | > 100 | > 100 | > 100 | > 100 | > 100
12 | CCCCCCCCCCCCCCCC(=O)OCC1OC(OC)C2NP(=O)(N(CCCl)CCCl)OC1C2O (stereo not drawn) | 56.1 |  | 10.5 | 7.29 | 6.76 | 8.71 | 54.8 | 21.7 | 3.42 | 20.5 | 32.2 | 10.8 | 47.4 | 24 | 9.26 | 10.7 | > 41.8 | 18.1 | 38 | 5.51
